In patent publication US8765730B2 (Hoffmann-La Roche Inc, priority 2010, dated 2014):

Molecular target: T1, human GPBAR1 receptor (Homo sapiens, UniProt Q8TDU6)
T1 construct: expressed in transfected cells
T1 sequence (Q8TDU6 1-330): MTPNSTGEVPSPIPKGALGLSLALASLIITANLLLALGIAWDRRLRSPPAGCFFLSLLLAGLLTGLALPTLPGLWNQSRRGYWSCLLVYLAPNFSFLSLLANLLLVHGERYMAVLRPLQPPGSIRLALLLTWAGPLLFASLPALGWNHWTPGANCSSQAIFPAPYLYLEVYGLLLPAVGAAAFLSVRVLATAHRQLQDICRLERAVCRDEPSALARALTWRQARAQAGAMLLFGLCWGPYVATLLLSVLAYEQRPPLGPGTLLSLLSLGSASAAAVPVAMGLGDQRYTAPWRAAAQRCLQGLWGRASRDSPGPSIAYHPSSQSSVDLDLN
Assay: functional cAMP assay in CHO-dhfr(minus) cells expressing human GPBAR1 receptors
Assay type: cell-based
Details: human EC50, functional cAMP assay, 30 min at 30° C.
In short: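 Agonist cAMP read-out: stable GPBAR1 CHO-dhfr− clone, 30 min compound exposure at 30° C following 30 min IBMX (1 mM) preincubation in Krebs Ringer bicarbonate. Time-resolved energy-transfer detection gives EC50; parental CHO cells serve as counter-screen.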

Row | EC50 | SMILES
1 | 6760 nM | Cc1ccccc1C(C/C(=N\O)c1cc(F)cc(F)c1)c1ccc(Br)cc1 (stereo not drawn) [Example 53, (E)-3-(4-bromo-phenyl)-1-(3,5-difluoro-phenyl)-3-o-tolyl-propan-1-one oxime]
2 | 233 nM | Cc1cc(/C(C[C@@H](c2ccc(O)cc2)c2ccc(Cl)cc2C)=N/O)ccn1 [Example 365, (S)-3-(4-Chloro-2-methyl-phenyl)-3-(4-hydroxy-phenyl)-1-(2-methyl-pyridin-4-yl)-propan-1-one oxime]
3 | 38 nM | Cc1cc(/C(CC(c2ccc(N3CCN(S(C)(=O)=O)CC3)cc2)c2ccccc2C(F)(F)F)=N/O)ccn1 (stereo not drawn) [Example 137, (E)-3-[4-(4-Methanesulfonyl-piperazin-1-yl)-phenyl]-1-(2-methyl-pyridin-4-yl)-3-(2-trifluoromethyl-phenyl)-propan-1-one oxime]
4 | 255 nM | Cc1ccccc1C(CC(=NO)c1ccncc1)c1ccc(-c2cccc(S(C)(=O)=O)c2)cc1 (racemic) [Example 32, 3-(3′-Methanesulfonyl-biphenyl-4-yl)-1-pyridin-4-yl-3-o-tolyl-propan-1-one oxime]
5 | 32 nM | Cc1cc(/C(C[C@@H](c2ccc(-c3ccc(C(=O)O)cc3)cc2)c2ccc(Cl)cc2C)=N/O)ccn1 [Example 296, 4′-[(S)-1-(4-Chloro-2-methyl-phenyl)-3-[(E)-hydroxyimino]-3-(2-methyl-pyridin-4-yl)-propyl]-biphenyl-4-carboxylic acid]
6 | 17 nM | Cc1cc(/C(CC(c2ccc(-c3ccc(C(=O)O)cc3)cc2)c2ccc(Cl)cc2C)=N/O)ccn1 (stereo not drawn) [Example 139, (E)-4′-(1-(4-chloro-2-methylphenyl)-3-(hydroxyimino)-3-(2-methylpyridin-4-yl)propyl)biphenyl-4-carboxylic acid]
7 | 2 nM | Cc1cc(/C(C[C@H](c2ccc(N3CCC(C(=O)O)CC3)cc2)c2ccc(Cl)cc2C)=N/O)ccn1 [Example 284, 1-{4-[(R)-1-(4-Chloro-2-methyl-phenyl)-3-[(E)-hydroxyimino]-3-(2-methyl-pyridin-4-yl)-propyl]-phenyl}-piperidine-4-carboxylic acid]
8 | 218 nM | COC(=O)c1ccc(-c2ccc(C(CC(=NO)c3ccnc(C)c3)c3ccccc3C)cc2)cc1 (mixture of isomers) [Example 74, 4′-[3-[Hydroxyimino]-3-(2-methyl-pyridin-4-yl)-1-o-tolyl-propyl]-biphenyl-4-carboxylic acid methyl ester]
9 | 327 nM | Cc1cc(Cl)ccc1[C@H](C/C(=N\O)c1ccnc(CO)c1)c1ccc(Br)cc1 [Example 383, (R,E)-3-(4-Bromophenyl)-3-(4-chloro-2-methylphenyl)-1-(2-(hydroxymethyl)pyridin-4-yl)propan-1-one oxime]
10 | 17 nM | Cc1cc(/C(C[C@H](c2ccc(N3CCN(S(C)(=O)=O)CC3)cc2)c2ccccc2C)=N/O)ccn1 [Example 144, (E,R)-1-(2-Methylpyridin-4-yl)-3-(4-(4-(methylsulfonyl)piperazin-1-yl)phenyl)-3-o-tolylpropan-1-one oxime]
11 | 592 nM | Cc1ccccc1C(C/C(=N\O)c1ccc(=O)n(C)c1)c1ccc(C(=O)NC2(CO)CC2)cc1 (stereo not drawn) [Example 308, (E)-4-(3-(Hydroxyimino)-3-(1-methyl-6-oxo-1,6-dihydropyridin-3-yl)-1-o-tolylpropyl)-N-(1-(hydroxymethyl)cyclopropyl)benzamide]
12 | 274 nM | Cc1cc(Cl)ccc1C(C/C(=N\O)c1ccc(=O)n(C)c1)c1ccc(NS(C)(=O)=O)cc1 (stereo not drawn) [Example 353, N-{4-[1-(4-Chloro-2-methyl-phenyl)-3-[(E)-hydroxyimino]-3-(1-methyl-6-oxo-1,6-dihydro-pyridin-3-yl)-propyl]phenyl}-methanesulfonamide]
13 | 3 nM | Cc1cc(/C(C[C@H](c2ccc(-c3ccc(C(=O)NCC(=O)O)cc3)cc2)c2ccccc2C)=N/O)ccn1 [Example 96, ({4′-[(R)-3-[(E)-Hydroxyimino]-3-(2-methyl-pyridin-4-yl)-1-o-tolyl-propyl]-biphenyl-4-carbonyl}-amino)-acetic acid]
14 | 26 nM | Cc1cc(/C(C[C@H](c2ccc(S(C)(=O)=O)cc2)c2ccc(Cl)cc2C)=N/O)ccn1 [Example 359, (R)-3-(4-Chloro-2-methyl-phenyl)-3-(4-methanesulfonyl-phenyl)-1-(2-methyl-pyridin-4-yl)-propan-1-one oxime]

Continued, molecule first:

Row | SMILES | EC50
15 | COc1cc(-c2ccc(C(C/C(=N\O)c3ccnc(C)c3)c3ccc(Cl)cc3F)cc2)ccc1C(=O)O (stereo not drawn) [Example 455, 4′-[1-(4-Chloro-2-fluoro-phenyl)-3-[(E)-hydroxyimino]-3-(2-methyl-pyridin-4-yl)-propyl]-3-methoxy-biphenyl-4-carboxylic acid] | 12 nM
16 | Cc1cc(C(=O)O)ccc1-c1ccc(C(C/C(=N\O)c2ccc(=O)n(C)c2)c2ccc(Cl)cc2Cl)cc1 (single isomer, unassigned) [Example 478, 4′-[(+)-1-(2,4-dichloro-phenyl)-3-[(E)-hydroxyimino]-3-(1-methyl-6-oxo-1,6-dihydro-pyridin-3-yl)-propyl]-2-methyl-biphenyl-4-carboxylic acid] | 375 nM
17 | Cc1ccccc1[C@H](C/C(Cc1ccccn1)=N\O)c1ccc(Br)cc1 [Example 263, (E,R)-4-(4-bromophenyl)-1-(pyridin-2-yl)-4-o-tolylbutan-2-one oxime] | 3210 nM
18 | CCCCC(C/C(=N\O)c1ccc(=O)n(C)c1)c1ccc(Br)cc1 (stereo not drawn) [Example 177, 5-{3-(4-Bromo-phenyl)-1-[(E)-hydroxyimino]-heptyl}-1-methyl-1H-pyridin-2-one] | 256 nM
19 | ON=C(CC(c1ccccc1)c1ccccc1)c1cc(F)ncc1Cl (racemic) [Example 58, 1-(5-Chloro-2-fluoro-pyridin-4-yl)-3,3-diphenyl-propan-1-one oxime] | 76 nM
20 | Cn1cc(/C(CC(c2ccc(-c3ccc(C(=O)O)c(F)c3)cc2)c2ccc(Cl)cc2Cl)=N/O)ccc1=O (single isomer, unassigned) [Example 475, 4′-[(+)-1-(2,4-dichloro-phenyl)-3-[(E)-hydroxyimino]-3-(1-methyl-6-oxo-1,6-dihydro-pyridin-3-yl)-propyl]-3-fluoro-biphenyl-4-carboxylic acid] | 166 nM
21 | Cn1cc(/C(CC(c2cccc(C(=O)N3CCOCC3)c2)c2ccc(Cl)cc2F)=N/O)ccc1=O (stereo not drawn) [Example 322, (E)-5-(3-(4-Chloro-2-fluorophenyl)-1-(hydroxyimino)-3-(3-(morpholine-4-carbonyl)phenyl)propyl)-1-methylpyridin-2(1H)-one] | 3960 nM
22 | Cn1cc(/C(C[C@H](c2ccc(-c3ccc(C(=O)O)s3)cc2)c2ccc(Cl)cc2F)=N/O)ccc1=O [Example 468, 5-{4-[(−)-1-(4-Chloro-2-fluoro-phenyl)-3-[(E)-hydroxyimino]-3-(1-methyl-6-oxo-1,6-dihydro-pyridin-3-yl)-propyl]-phenyl}-thiophene-2-carboxylic acid] | 349 nM
23 | COCCNC(=O)c1ccc(C(C/C(=N\O)c2ccc(=O)n(C)c2)c2ccccc2Cl)cc1F (stereo not drawn) [Example 232, (E)-4-(1-(2-Chlorophenyl)-3-(hydroxyimino)-3-(1-methyl-6-oxo-1,6-dihydropyridin-3-yl)propyl)-2-fluoro-N-(2-methoxyethyl)benzamide] | 137 nM
24 | Cn1cc(/C(CC(c2ccc(Br)cc2)c2ccc(Cl)cc2F)=N/O)ccc1=O (single isomer, unassigned; (+)) [Example 239, (+)-5-{3-(4-Bromo-phenyl)-3-(4-chloro-2-fluoro-phenyl)-1-[(E)-hydroxyimino]-propyl}-1-methyl-1H-pyridin-2-one] | 24 nM
25 | CN(C)c1ccc(C(CC(=NO)c2ccncc2)c2c[nH]c3ccccc23)cc1 (racemic) [Example 62, 3-(4-Dimethylamino-phenyl)-3-(1H-indol-3-yl)-1-pyridin-4-yl-propan-1-one oxime] | 2710 nM
26 | Cn1cc(/C(CC(c2ccc(C(=O)N[C@H]3CC[C@H](O)CC3)c(F)c2)c2ccccc2Cl)=N/O)ccc1=O (stereo partly drawn) [Example 217, Trans-4-[1-(2-Chloro-phenyl)-3-[(E)-hydroxyimino]-3-(1-methyl-6-oxo-1,6-dihydro-pyridin-3-yl)-propyl]-2-fluoro-N-(4-hydroxy-cyclohexyl)-benzamide] | 700 nM
27 | Cc1ccccc1C(C/C(=N\O)c1ccc(=O)n(C)c1)c1ccc(Oc2cccc(C(=O)O)c2)cc1F (stereo not drawn) [Example 235, 3-{3-Fluoro-4-[3-[(E)-hydroxyimino]-3-(1-methyl-6-oxo-1,6-dihydro-pyridin-3-yl)-1-o-tolyl-propyl]-phenoxy}-benzoic acid] | 43 nM
28 | Cc1cc(Cl)ccc1C(C/C(=N\O)c1ccc(=O)n(C)c1)c1ccc(Oc2ccc(Cl)c(C(=O)O)c2)cc1 (stereo not drawn) [Example 347, 2-Chloro-5-{4-[1-(4-chloro-2-methyl-phenyl)-3-[(E)-hydroxyimino]-3-(1-methyl-6-oxo-1,6-dihydro-pyridin-3-yl)-propyl]-phenoxy}-benzoic acid] | 119 nM
29 | Cn1cc(/C(CC(c2ccc(-c3ccc(CC#N)cc3)cc2)c2ccc(Cl)cc2F)=N/O)ccc1=O (stereo not drawn) [Example 459, {4′-[1-(4-Chloro-2-fluoro-phenyl)-3-[(E)-hydroxyimino]-3-(1-methyl-6-oxo-1,6-dihydro-pyridin-3-yl)-propyl]-biphenyl-4-yl}-acetonitrile] | 364 nM
30 | Cc1cc(Cl)ccc1[C@@H](C/C(=N\O)c1ccc(=O)n(C)c1)c1ccc(-c2ccc(NS(C)(=O)=O)cc2)cc1 (single isomer, unassigned) [Example 416, (+)-N-{4′-[1-(4-Chloro-2-methyl-phenyl)-3-[(E)-hydroxyimino]-3-(1-methyl-6-oxo-1,6-dihydro-pyridin-3-yl)-propyl]-biphenyl-4-yl}-methanesulfonamide] | 18 nM
